Target: T1, CXCR3-A (Homo sapiens, UniProt P49682)
T1 construct: full-length human CXCR3-A (isoform A) in membrane fragments of transfected U87 and HEK-293 cells
T1 sequence (P49682 1-368): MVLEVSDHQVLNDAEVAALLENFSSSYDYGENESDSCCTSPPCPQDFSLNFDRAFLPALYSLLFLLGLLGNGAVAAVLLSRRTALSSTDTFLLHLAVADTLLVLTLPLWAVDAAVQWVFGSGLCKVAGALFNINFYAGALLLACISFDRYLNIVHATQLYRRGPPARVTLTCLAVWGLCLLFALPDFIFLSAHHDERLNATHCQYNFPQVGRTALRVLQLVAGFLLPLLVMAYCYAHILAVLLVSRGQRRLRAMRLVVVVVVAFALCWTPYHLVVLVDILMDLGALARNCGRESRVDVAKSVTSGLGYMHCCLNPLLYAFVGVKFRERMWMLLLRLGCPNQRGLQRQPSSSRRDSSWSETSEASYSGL
Test: plasmon waveguide resonance on captured cell membrane fragments; no spectral change with U87-CTRL fragments
Assay type: binding

Kd: 36 ± 9 nM
SMILES: NC(N)=NCCC[C@H](NC(=O)[C@@H]1Cc2ccccc2CN1C(=O)CCC(=O)c1ccccc1)C(=O)NCC1CCCCC1 [PS372424]

From article PMC5691136, “The role of CXCR3/LRP1 cross-talk in the invasion of primary brain tumors” (Nature Communications, 2017)
